The values that follow come from US5624952A, “[(Benzodioxan, benzofuran or benzopyran) alkylamino] alkyl substituted guanidines” (Janssen Pharmaceutica N.V., priority 1993, dated 1997).

Structures are written as SMILES. Where a name gives a salt, the structure may show the parent alone.

In this experiment the test system is basilar arteries of pigs. The experiment can be described thus: Constriction of isolated basilar artery segments of pigs in organ baths (serotonin-like response). The note with it: Sus scrofa; pig basilar artery segments, 37° C., Krebs-Henseleit; relative to serotonin 3×10^-7 M; estimated from three different preparations; read-out: ED50 (molar concentration at which a test compound causes 50% of the constrictive response obtained with serotonin). How it is done:
Segments of basilar aeries taken from pigs (anaesthetised with sodium pentobarbital) were mounted for recording of isometric tension in organ baths. The preparations were bathed in Krebs--Henseleit solution. The solution was kept at 37° C. and gassed with a mixture of 95% O2 -5% CO2. The Preparations were stretched until a stable basal tension of 2 grams was obtained.
The preparations were made to constrict with serotonin (3×10^-7 M). The response to the addition of serotonin was measured and subsequently the serotonin was washed away.
This Procedure was repeated until stable responses were obtained.
Subsequently the test compound was administered to the organ bath and the constriction of the Preparation was measured. This constrictive response is expressed as a Percentage of the response to serotonin as measured Previously.
The ED50 -value (molar concentration) is defined as the concentration at which a test compound causes 50% of the constrictive response obtained with serotonin. Said
ED50 -values are estimated from experiments on three different preparations.
Take `Fc1ccc2c(c1)CCC(CNCCCNc1ncccn1)O2` (centres unmarked) [Compound 3]: the EC50 was 146 nM. For `CCc1ccc2c(c1)OC(CNCCCNC1=NCCCCN1)CC2` (centres unmarked) [Compound 116], the EC50 is 68.2 nM. Then `COc1cccc2c1OC(CNCCCNC1=NCCCN1)CC2` (centres unmarked) [Compound 76], with 9.19 nM; and `CN(C)C(=N)NCCCNCC1CCc2ccccc2O1` (centres unmarked) [Compound 151], with 27.1 nM; and `CCc1ccc2c(c1)OC(CNCCCCCNC1=NCCCN1)CC2` (centres unmarked) [Compound 82], with 17.6 nM.

On to `Brc1ccc2c(c1)CCC(CNCCCNC1=NCCCN1)O2` (racemic) [Compound 56, (±)-N-[(6-bromo-3,4-dihydro-2H-1-benzopyran-2-yl)methyl]-N'-(1,4,5,6-tetrahydro-2-pyrimidinyl)-1,3-propanediamine ethanedioate(1:2)], for which the EC50 was 187 nM.

Consider `c1ccc2c(c1)CC[C@@H](CNCCCNC1=NCCCN1)O2` [Compound 65], for which the EC50 is 221 nM. Under `c1ccc2c(c1)CC[C@H](CNCCCNC1=NCCCN1)O2` [Compound 62, (-)-(R)-N-[(3,4-dihydro-2H-1-benzopyran-2-yl)methyl]-N'-(1,4,5,6-tetrahydro-2-pyrimidinyl)-1,3-propanediamine dihydrochloride hemihydrate] stands 31.7 nM; under `Cc1ccc2c(c1)OC(CNCCCNC1=NCCCN1)CC2` (centres unmarked) [Compound 67], 17.7 nM. In the case of `Cc1ccc2c(c1)OC(CNCCCNC(=N)N(C)C)CC2` (centres unmarked) [Compound 152], the EC50 was 56 nM. With `CCNC(=N)NCCNCC1CCc2ccccc2O1` (centres unmarked) [Compound 148], the EC50 was 495 nM.

As to `c1ccc2c(c1)CCC(CNCCCNC1=NCCCN1)O2` (racemic) [Compound 95, (±)-N-[(3,4-dihydro-2H-1-benzopyran-2-yl)methyl]-N'-(1,4,5,6-tetrahydro-2-pyrimidinyl)-1,3-propanediamine dihydrochloride], the EC50 was 81.7 nM. As for `CC(C)(C)c1ccc2c(c1)OC(CNCCCNC1=NCCCN1)CC2` (centres unmarked) [Compound 89], the EC50 was 79.4 nM. Under `Cc1cccc2c1OC(CNCCCNC1=NCCCN1)CC2` (centres unmarked) [Compound 84] stands 13.3 nM. Take `Fc1ccc2c(c1)CCC(CNCCCNC1=NCCN1)O2` (centres unmarked) [Compound 106]: the EC50 was 39 nM.

Regarding `NC(=O)c1ccnc(NCCCNCC2CCc3ccccc3O2)n1` (centres unmarked) [Compound 114], the EC50 was 95.6 nM. Turning to `Fc1ccc2c(c1)CC[C@H](CNCCCNC1=NCCCN1)O2` [Compound 70], the EC50 is 6.37 nM. Under `c1ccc2c(c1)CCC(CN1CCC(NC3=NCCCN3)CC1)O2` (centres unmarked) [Compound 136] stands 810 nM; under `c1ccc2c(c1)CCC(CNCCCNC1=NCCN1)O2` (centres unmarked) [Compound 130], 33.6 nM; under `c1ccc2c(c1)CCC(CNCCCCCNC1=NCCCN1)O2` (centres unmarked) [Compound 98], 34.2 nM. `CC(C)c1ccc2c(c1)OC(CNCCCNC1=NCCCN1)CC2` (centres unmarked) [Compound 86]: the EC50 is 41.6 nM. For the compound `Fc1ccc2c(c1)OC(CNCCCNC1=NCCCN1)CC2` (centres unmarked) [Compound 72], the EC50 was 23.4 nM.

For the compound `CCc1ccc2c(c1)OC(CNCCCNC1=NCCCN1)CC2` (centres unmarked) [Compound 73], the EC50 was 3.46 nM.

Regarding `c1ccc2c(c1)CCC(CNCCNC1=NCCN1)O2` (centres unmarked) [Compound 129], the EC50 was 444 nM. Under `c1ccc2c(c1)CC[C@H](CNCCCCNC1=NCCCN1)O2` [Compound 99] stands 42.2 nM; under `N#Cc1ccnc(NCCCNCC2CCc3ccccc3O2)n1` (centres unmarked) [Compound 113], 16.3 nM. In the case of `c1ccc2c(c1)CCC(CNCCCNc1nccnn1)O2` (centres unmarked) [Compound 115], the EC50 is 45.1 nM. On to `Fc1ccc2c(c1)CCC(CNCCCNC1=NCCCN1)O2` (centres unmarked) [Compound 63], for which the EC50 is 121 nM.

In the case of `c1cnc(NCCCNC[C@@H]2CCc3ccccc3O2)nc1` [Compound 5], the EC50 was 515 nM. `c1ccc2c(c1)CC(CNCCCNC1=NCCCN1)O2` (centres unmarked) [Compound 66]: the EC50 was 656 nM. Turning to `CCCCc1ccc2c(c1)OC(CNCCCNC1=NCCCN1)CC2` (centres unmarked) [Compound 87], the EC50 is 88.7 nM.

As to `c1ccc2c(c1)CC[C@H](CN1CCC(NC3=NCCCN3)CC1)O2` [Compound 139], the EC50 was 150 nM. Take `COc1ccc2c(c1)OC(CNCCCNC1=NCCCN1)CC2` (centres unmarked) [Compound 78]: the EC50 was 35.4 nM. With `CC(C)NC(=N)NCCCNCC1CCc2ccccc2O1` (racemic) [Compound 150, (±)-N-[3-[[(3,4-dihydro-2H-1-benzopyran-2-yl)methyl]amino]propyl]-N'-(1-methylethyl)-guanidine dihydrochloride], the EC50 was 46.9 nM. For `CCCc1ccc2c(c1)OC(CNCCCNC1=NCCCN1)CC2` (centres unmarked) [Compound 88], the EC50 is 7.02 nM. Then `Fc1ccc2c(c1)CC[C@H](CNCCNc1ncccn1)O2` [Compound 46, (-)-(R)-N-[(6-fluoro-3,4-dihydro-2H-1-benzopyran-2yl)methyl]-N'-(2-pyrimidinyl)-1,2-ethanediamine], with 1000 nM.

`Fc1ccc2c(c1)CCC(CNCCCCCCNC1=NCCCN1)O2` (centres unmarked) [Compound 68]: the EC50 is 33.3 nM.

On to `c1cnc(NCCCCNCC2CCc3ccccc3O2)nc1` (centres unmarked) [Compound 48], for which the EC50 was 306 nM.

With `c1ccc2c(c1)CCC(CNCCCNC1=NCCCCN1)O2` (centres unmarked) [Compound 111], the EC50 is 16.7 nM. Consider `CCc1ccc2c(c1)OC(CNCCCCNc1ncccn1)CC2` (centres unmarked) [Compound 18], for which the EC50 was 49 nM. For the compound `c1ccc2c(c1)CCC(CNCCCCNC1=NCCCN1)O2` (centres unmarked) [Compound 97], the EC50 was 97.6 nM. Regarding `c1ccc2c(c1)OCC(CNCCCNC1=NCCCN1)O2` (centres unmarked) [Compound 64], the EC50 is 89.7 nM. Under `Fc1ccc2c(c1)CC[C@H](CNCCCNc1ncccn1)O2` [Compound 13] stands 42.2 nM; under `CCc1ccc2c(c1)OC(CNCCCNC1=NCCN1)CC2` (centres unmarked) [Compound 133], 52.7 nM; under `c1ccc2c(c1)CCC(CNCCNC1=NCCCN1)O2` (centres unmarked) [Compound 57], 542 nM. For the compound `CCc1ccc2c(c1)OC(CNCCCNC(=N)N(C)C)CC2` (centres unmarked) [Compound 153], the EC50 is 21.8 nM. Regarding `CCCNC(=N)NCCCNCC1CCc2ccccc2O1` (centres unmarked) [Compound 149], the EC50 is 99.2 nM.
